Key:
[1] = target: biotinylated Avi-tagged luciferase/EGFP fusion (pWFAvi_IBc_luc) [luciferase: P08659]; assay: pull-down from HEK293T extract on streptavidin-coated sepharose beads; bound luciferase activity relative to bound plus unbound
MCF7 cells = assay: BrdU incorporation (DNA synthesis) in quiescent MCF7 cells; format: cell-based; details: fulvestrant 10 nM during the last 24 h of the incubation without serum and insulin, results not shown
Method: MCF7 cells (ATCC HTB-22) were routinely cultivated in Dulbecco's Modified Eagle Medium (DMEM) comprising 5% serum, 6 ng/ml insulin, 0.1 mM non essential amino acids (NEAA, GIBCO), 1 mM Sodium pyruvate, 50 U/ml Penicillin and 50 μg/ml Streptomycin. The cells were rendered quiescent by incubating them for three days in phenol-free DMEM without serum and insulin, but supplemented with 0.1 mM NEAA (GIBCO), 1 mM Sodium pyruvate, 50 U/ml Penicillin and 50 μg/ml Streptomycin. Cells were kept quiescent (control) or were stimulated to proliferate by adding 5% serum and 6 ng/ml insulin in the culture medium. Samples were harvested 2 h, 4 h, 6 h, 8 h, 10 h, 12 h, 16 h, and 24 h after stimulation of MCF7 cells. Bromodeoxyuridine (BrdU, 10^−4 M) and fluorodeoxyuridine (2.10^−6 M) were added to the cells for the last 24 h of culture. BrdU staining was used to record DNA synthesis. […] DNA synthesis resumed 16 h after stimulation by serum and insulin (FIG. 5, dashed line).
When fulvestrant (10 nM) was added to the culture to block estrogen receptor action during the last 24 h of the incubation without serum and insulin, the proportion of cells starting DNA synthesis dropped to less than 2% (results not shown).

[2] = target: T1, CDK7AS (mutated version of CDK7) in HCT116K7AS cells (Homo sapiens, UniProt P50613, D92E/F91G); assay: Rb kinase activity of streptavidin-immobilized Avi-tagged cyclin D3/CDK4 fusion from HCT116K7AS cells treated with serum and CDK7AS inhibitor; format: cell-based
T1 construct: These cells express only a mutated version of CDK7 (CDK7AS); endogenous in cells; host or cells: HCT116K7AS cells transduced with the Avi-tagged cyclin D3/CDK4 reporter (HCT116K7AS-V26)
T1 sequence (P50613 whole entry F91G/D92E, the tested form may be a part): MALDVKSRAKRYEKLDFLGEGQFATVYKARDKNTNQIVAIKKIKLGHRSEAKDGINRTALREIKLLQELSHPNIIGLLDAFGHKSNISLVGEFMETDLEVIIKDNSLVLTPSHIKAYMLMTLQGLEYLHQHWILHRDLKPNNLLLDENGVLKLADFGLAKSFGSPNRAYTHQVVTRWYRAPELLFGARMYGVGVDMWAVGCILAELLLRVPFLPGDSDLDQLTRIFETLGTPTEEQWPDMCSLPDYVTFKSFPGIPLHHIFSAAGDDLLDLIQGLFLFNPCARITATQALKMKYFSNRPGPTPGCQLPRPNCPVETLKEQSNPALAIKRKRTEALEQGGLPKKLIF
T1 sequence (P51946 whole entry partner, the tested form may be a part): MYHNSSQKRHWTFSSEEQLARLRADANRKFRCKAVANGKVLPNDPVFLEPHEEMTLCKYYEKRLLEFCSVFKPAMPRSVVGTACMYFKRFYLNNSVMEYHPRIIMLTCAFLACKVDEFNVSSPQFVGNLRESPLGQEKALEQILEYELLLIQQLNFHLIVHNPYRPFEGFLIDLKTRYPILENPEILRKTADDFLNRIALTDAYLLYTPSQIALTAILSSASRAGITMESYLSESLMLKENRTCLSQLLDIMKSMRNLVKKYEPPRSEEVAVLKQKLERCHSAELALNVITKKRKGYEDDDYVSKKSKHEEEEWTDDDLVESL
T1 sequence (P51948 whole entry partner, the tested form may be a part): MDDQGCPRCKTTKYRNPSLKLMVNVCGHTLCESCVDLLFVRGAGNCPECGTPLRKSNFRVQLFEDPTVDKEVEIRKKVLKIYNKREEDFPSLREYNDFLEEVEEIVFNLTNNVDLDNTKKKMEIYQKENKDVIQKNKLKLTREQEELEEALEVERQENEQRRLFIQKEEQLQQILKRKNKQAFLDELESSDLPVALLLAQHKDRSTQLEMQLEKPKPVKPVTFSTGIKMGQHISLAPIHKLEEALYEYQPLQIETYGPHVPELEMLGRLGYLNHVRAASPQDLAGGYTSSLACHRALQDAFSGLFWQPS
Method: In order to verify if transgenes expressed in HCT116K7AS cells after transduction with the vectors described in Example 8 could be immobilized on streptavidin-coated sepharose beads and were enzymatically active, the HCT116K7AS cells expressing the cyclin D3/CDK4 fusion protein described in the Example 14 were cultivated in 6 cm Petri dishes with 10 ml DMEM medium supplemented with 10% serum, Sodium pyruvate (1 mM), Penicillin (50 U/ml) and Streptomycin (50 μg/ml). These cells express only a mutated version of CDK7 (CDK7AS) inhibitable by bulky ATP analogs such as 1-NMPP1 (Santa Cruz). The cells were rendered quiescent by incubating them for three days in DMEM without serum, but supplemented with biotin (0.1 mM), Sodium pyruvate (1 mM), Penicillin (50 U/ml) and Streptomycin (50 μg/ml). Cells were stimulated to proliferate by adding 10% serum for 5 or 16 hours in the continuous presence of biotin (0.1 mM). As indicated, vehicle (DMSO) or CDK7AS inhibitor (1-NMPP1) were added together with serum for the same time or for an additional pulse of 1 hour. […]
The pRb kinase assay was performed on the cellular extract bound to the streptavidin-coated sepharose beads as described previously (Coulonval et al., supra). […] The phosphorylation on T826 of the pRb fragment was detected using a phospho-specific anti-pRb (T826) antibody (Epitomics). […]

streptavidin (from UniProt P22629 37-163)
percent of the total luciferase activity bound [1]: < 40%

C[C@]12CC[C@@H]3c4ccc(O)cc4C[C@@H](CCCCCCCCC[S+]([O-])CCCC(F)(F)C(F)(F)F)[C@H]3[C@@H]1CC[C@@H]2O (stereo partly shown) [fulvestrant]
proportion of cells starting DNA synthesis (MCF7 cells): less than 2%

CC(C)(C)n1nc(Cc2cccc3ccccc23)c2c(N)ncnc21 [1-NMPP1]
serum stimulation of Rb kinase activity of the biotinylatable Cyclin D3/CDK4 fusion ([2]; inhibitor added during the last hour of 17 hours serum stimulation, HCT116K7AS (FIG. 12)): severely impaired | serum induction of Rb kinase activity of the biotinylatable Cyclin D3/CDK4 fusion ([2]; inhibitor present together with serum for 5 hours, HCT116K7AS, P-Rb T826 immunoblot (FIG. 12)): prevented
